Test results as given in patent publication US4981847A, “Tricyclic compounds” (Fujisawa Pharmaceutical Co., Ltd., priority 1988, dated 1991).

Key:
[1] = system: CCK receptor; assay: CCK receptor antagonism in isolated fundic circular muscle from guinea pig stomach; type: cell-based; settings: test compound 1×10^-6 M, CCK-8 3.2×10^-7 M, 37° C.
Procedure: (A) CCK receptor antagonism in isolated fundic circular muscle from guinea pig stomach
The strip of circular muscle suspended in 25 ml organ bath containing Krebs' bicarbonate solution (NaCl 118 mM, KCl 4.8 mM, KH2 PO4 1.2 mM, MgSO4 1.2 mM, CaCl2 2.5 mM, NaHCO3 25 mM, glucose 11 mM and bovine serum albumin 0.1%) maintained at 37° C. and gassed with 95% O2 and 5% CO2.
The strip was placed under an initial tension of 0.5 g and equilibrated for 60 minutes during which the bath volume was replaced every 15 minutes. Isometric contraction was measured using a force transducer. CCK-8 (3.2×10^-7 M) was added to the bathing solution and the contractile force was measured After washing out CCK-8, test compound A (1×10^-6 M) was added. 5 minutes later, CCK-8 was added and the contractile force was measured. CCK antagonism was calculated by comparing the contractile force induced by CCK in the absence or presence of test compound A.

[2] = molecular target: T1, rat pancreatic CCK receptors (Rattus norvegicus, UniProt P30551); assay: Inhibition of binding of [125I] CCK-8 to rat pancreatic CCK receptors
T1 construct: rat pancreatic CCK receptors; from tissue; host or cells: rat pancreas
T1 sequence (P30551 1-444): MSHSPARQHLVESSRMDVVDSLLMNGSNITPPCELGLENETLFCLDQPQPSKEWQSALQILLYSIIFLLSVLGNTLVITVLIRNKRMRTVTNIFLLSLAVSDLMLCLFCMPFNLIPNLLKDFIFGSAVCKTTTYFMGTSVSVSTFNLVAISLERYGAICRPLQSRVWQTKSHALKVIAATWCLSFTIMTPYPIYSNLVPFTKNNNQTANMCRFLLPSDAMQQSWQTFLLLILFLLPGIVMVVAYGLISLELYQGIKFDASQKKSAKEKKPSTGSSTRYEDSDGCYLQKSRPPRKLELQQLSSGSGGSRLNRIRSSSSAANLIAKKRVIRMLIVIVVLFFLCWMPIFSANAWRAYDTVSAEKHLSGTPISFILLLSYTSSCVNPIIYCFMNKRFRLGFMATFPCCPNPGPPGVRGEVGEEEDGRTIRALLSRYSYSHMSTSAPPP
Source text: (B) Inhibition of binding of [^125 I] CCK-8 to rat pancreatic CCK receptors by test compound B (CCK antagonism).

[3] = molecular target: T2, guinea pig cerebral cortical CCK receptors (Cavia porcellus, UniProt H0VZC5); assay: Inhibition of binding of [125I] CCK-8 to guinea pig cerebral cortical CCK receptors
T2 construct: guinea pig cerebral cortical CCK receptors; from tissue; host or cells: guinea pig cerebral cortex
Source text: (C) Inhibition of binding of [^125 I] CCK-8 to guinea pig cerebral cortical CCK receptors by test compound B (CCK antagonism).

[4] = system: caerulein-induced pancreatitis; assay: Inhibitory effect on caerulein-induced pancreatitis in mice; type: in vivo; settings: Mus musculus
Source text: (D) Inhibitory effect of test compound B on caerulein-induced pancreatitis in mice.

[5] = system: CCK-8-induced inhibition of gastric emptying; assay: Effect upon CCK-8-induced inhibition of gastric emptying in mice (CCK antagonism); type: in vivo; settings: Mus musculus
Source text: Effect of test compound B upon CCK-8-induced inhibition of gastric emptying in mice (CCK antagonism).

T2 sequence (H0VZC5 entry or part of it): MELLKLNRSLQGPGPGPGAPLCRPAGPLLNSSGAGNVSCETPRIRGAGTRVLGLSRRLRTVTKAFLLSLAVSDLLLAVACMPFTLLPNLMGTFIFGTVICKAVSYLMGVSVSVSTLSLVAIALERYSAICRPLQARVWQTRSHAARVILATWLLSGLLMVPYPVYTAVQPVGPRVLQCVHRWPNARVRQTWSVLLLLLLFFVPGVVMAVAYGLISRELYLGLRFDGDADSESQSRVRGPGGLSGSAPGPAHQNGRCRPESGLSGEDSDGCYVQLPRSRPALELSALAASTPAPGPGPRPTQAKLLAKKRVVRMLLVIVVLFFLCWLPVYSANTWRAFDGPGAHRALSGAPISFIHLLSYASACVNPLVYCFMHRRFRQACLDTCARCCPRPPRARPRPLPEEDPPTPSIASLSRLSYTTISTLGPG

SMILES: O=C(NC1N=C(c2ccccc2F)c2cccc3c2N(CC3)C1=O)c1cc2ccccc2[nH]1 (racemic) [test compound A, (3RS)-1-(2-Fluorophenyl)-3,4,6,7-tetrahydro-3-(2-indolylcarbonylamino)-4-oxopyrrolo[3,2,1-jk][1,4]benzodiazepine]
- Inhibition (%) of CCK-8-induced contraction [1]: 90.4%

SMILES: O=C(N[C@H]1N=C(c2ccccc2F)c2cccc3c2N(CC3)C1=O)c1cc2ccccc2[nH]1 [test compound B, (3S)-1-(2-Fluorophenyl)-3,4,6,7,-tetrahydro-3-(2-indolylcarbonylamino)-4-oxopyrrolo[3,2,1-jk][1,4]-benzodiazepine]
- IC50 [2]: 0.67 nM
- IC50 [3]: 31 nM
- ED50 [4]: 0.022 mg/kg
- ED50 [5]: 0.01 mg/kg
